Source: paper PMC12298827, “Subchronic Toxicities of Four Per- and Polyfluoroalkyl Substances (PFASs) by Oral Exposure in Sprague–Dawley Rats” (Toxics, 2025)

Tested on: male and female Sprague–Dawley rats
Assay: 90-day subchronic oral gavage toxicity study
Assay type: in vivo, rat
Procedure: Subchronic (90-day) studies were performed in accordance with current U.S. EPA’s Toxic Substances Control Act Good Laboratory Practice (GLP) Standards, with the following two general exceptions to the GLP guidelines: Analysis of the dose formulations was conducted according to RTI-approved Standard Operating Procedures, and corn oil (the vehicle) was not characterized (certificate of analysis from the vendor is available in the appendices to the final reports). Male and female Sprague–Dawley rats (five dose levels plus a control, n = 10/sex/dose group, corn oil vehicle dose volume of 3 mL/kg; oral gavage) were used in these studies, and the rats were euthanized on SD 91. The dose levels for PFHI were 0, 12.5, 25, 50, 100, and 200 mg/kg-day. The dose levels for MHFPK were 0, 18.8, 37.5, 75, 150, and 300 mg/kg-day. The dose levels for PFNAC were 0, 0.1, 0.3, 1.0, 3.0, and 10 mg/kg-day for male rats and 0, 0.3, 1.0, 3.0, 10, and 30 mg/kg-day for female rats. For CTFPA, the dose levels were 0, 1.9, 3.8. 7.5, 15, and 30 mg/kg-day for male rats and 0, 6.3, 12.5, 25, 50, and 100 mg/kg-day for female rats. For each PFAS, three batches of dosing solution were prepared. The time between the batch preparation of the dosing solutions ranged between 29 and 39 days. Blood samples were collected from all the rats at termination for serum chemistry, hematology, coagulation, and the analysis of the parent PFAS chemical in the plasma. In vivo data collection and further detail on the endpoints examined postmortem are described below.
The rats were observed twice daily for morbidity and mortality throughout the study period. At least once prior to randomization to test groups and weekly thereafter, the rats were physically examined, and bodyweights were obtained. Feed consumption was quantified weekly starting on SD 1.
Neurotoxicity was evaluated using the functional observational battery (FOB) and measuring locomotor activity (LMA) 2–4 h post dosing on SDs 78–80 and 80–84, respectively. For both the 14- and 90-day studies, an ophthalmologic examination was conducted prior to randomization and near the end of the study, using indirect ophthalmoscopy and slit–lamp biomicroscopy (as needed) after the administration of a mydriatic solution.
Hematology, biochemistry, and coagulation endpoints were measured at the termination of the study. A Siemens Advia 2120i hematology analyzer (Siemens Healthineers, Erlangen, Germany) was used to measure (or calculate) the parameters related to the complete blood count, leukocyte differential count, and reticulocyte count. The hematology parameters are listed and described in Table 2. The prothrombin time […] and activated partial thromboplastin time (APTT) were measured using an Instrumentation Laboratory (Bedford, MA, USA) ACL Elite Pro coagulation analyzer (laser–nephelometric centrifugal method).
At necropsy, the rats were visually examined for external abnormalities and organ weights (absolute and relative to the BW and brain weight), which were recorded (paired organs weighed together). The tissues were preserved in 10% neutral buffered formalin (NBF), except for the ocular tissues, testes, and epididymides, which were preserved in modified Davidson’s fixative and later transferred to 10% NBF. Bone marrow smears were prepared from the femurs, and the slides were air-dried, fixed in methanol, stained, and stored at room temperature for possible future evaluation. The preserved tissues were embedded in paraffin, sectioned, stained with hematoxylin and eosin, and examined by a board-certified veterinary pathologist.
Statistical analysis was performed using Provantis™ Version 10 or greater (Instem LSS, Limited; Stone, Staffordshire, UK). Differences among the treatment groups compared to the control were evaluated using one-way analysis of variance (ANOVA) if the underlying assumptions of a normal distribution (Shapiro–Wilk test) and the homogeneity of the variance (Levene’s test) were satisfied. […]

In the case of C=CC(=O)OCC(F)(F)C(F)(F)C(F)(F)C(F)(F)C(F)(F)C(F)(F)C(F)(F)C(F)F [PFNAC, 1H,1H,9H-Perfluorononyl acrylate], the “Liver/Body Weight” value (female, 30 mg/kg-day) is reported as 3.22%, the “Liver/Brain Weight” value (female, 30 mg/kg-day) is reported as 499% and the MPV (female, 30 mg/kg-day) is reported as 7.95 ± 0.58 fL. The PT (female, 30 mg/kg-day) was 14.44 s, the RBC (female, 30 mg/kg-day) was 7.067±0.364 M/µL and the “Total BW change” value (female, 30 mg/kg-day) was 106.79 g. For the same molecule, the “Total Food Consumed” value (female, 30 mg/kg-day) was 1525 g, the “BMD10, absolute kidney weight increase” value (male) was 0.17 mg/kg-day and the “BMD10, absolute liver weight increase” value (male) was 0.09 mg/kg-day. The “BMD10, relative liver weight increase” value (male) was 0.15 mg/kg-day, the “BMDL, absolute kidney weight increase” value (male) was 0.06 mg/kg-day and the “BMDL, absolute liver weight increase” value (male) was 0.04 mg/kg-day. The “BMDL, relative liver weight increase” value (male) was 0.13 mg/kg-day, the “LOEL, absolute kidney weight increase” value (male) was 0.3 mg/kg-day and the “LOEL, absolute liver weight increase” value (male) was 0.3 mg/kg-day. The “LOEL, relative kidney weight increase” value (male) was 1.0 mg/kg-day, the “LOEL, relative liver weight increase” value (male) was 0.3 mg/kg-day and the “NOEL, absolute kidney weight increase” value (male) was 0.1 mg/kg-day. For the same molecule, the “NOEL, absolute liver weight increase” value (male) was 0.1 mg/kg-day, the “NOEL, relative kidney weight increase” value (male) was 0.3 mg/kg-day and the “NOEL, relative liver weight increase” value (male) was 0.1 mg/kg-day. For the same molecule, the “% BW Gain” value (male, 0.1 mg/kg-day) was 110.97%, the “% Diff, % BW Gain” value (male, 0.1 mg/kg-day) was 9.90% and the “% Diff, Total BW change” value (male, 0.1 mg/kg-day) was 10.47%. For the same molecule, the “% Diff, Total Food Consumed” value (male, 0.1 mg/kg-day) was 3.57%, the A/G (male, 0.1 mg/kg-day) was 0.90±0.08 ratio and the ABNEUT (male, 0.1 mg/kg-day) was 4.163±1.653 K/µL. For the same molecule, the ABRETi (male, 0.1 mg/kg-day) was 193.23±33.44 10^9/L, the ABSEOS (male, 0.1 mg/kg-day) was 0.112±0.047 K/µL and the ALB (male, 0.1 mg/kg-day) was 3.60 ± 0.21 g/dL. The ALPi (male, 0.1 mg/kg-day) was 138.7±40.9 U/L, the APTT (male, 0.1 mg/kg-day) was 23.16 s and the BUN (male, 0.1 mg/kg-day) was 16.2 ± 1.6 mg/dL. For the same molecule, the CHOL (male, 0.1 mg/kg-day) was 73.4 ± 15.5 mg/dL, the GLOB (male, 0.1 mg/kg-day) was 4.03 ± 0.29 g/dL and the GLUC (male, 0.1 mg/kg-day) was 107.6 ± 8.6 mg/dL. The HCT (male, 0.1 mg/kg-day) was 46.10±4.64%, the HGB (male, 0.1 mg/kg-day) was 14.36 ± 1.40 g/dL and the “Kidney Weight” value (male, 0.1 mg/kg-day) was 3.14 g. The “Kidney/Body Weight” value (male, 0.1 mg/kg-day) was 0.51%, the “Kidney/Brain Weight” value (male, 0.1 mg/kg-day) was 141% and the “Liver Weight” value (male, 0.1 mg/kg-day) was 14.99 g. For the same molecule, the “Liver/Body Weight” value (male, 0.1 mg/kg-day) was 2.41%, the “Liver/Brain Weight” value (male, 0.1 mg/kg-day) was 673% and the MPV (male, 0.1 mg/kg-day) was 7.82 ± 0.50 fL. The PT (male, 0.1 mg/kg-day) was 15.98 s, the RBC (male, 0.1 mg/kg-day) was 8.281±0.895 M/µL and the “Total BW change” value (male, 0.1 mg/kg-day) was 333.40 g. For the same molecule, the “Total Food Consumed” value (male, 0.1 mg/kg-day) was 2298 g, the “% BW Gain” value (male, 0.3 mg/kg-day) was 113.17% and the “% Diff, % BW Gain” value (male, 0.3 mg/kg-day) was 12.08%. The “% Diff, Total BW change” value (male, 0.3 mg/kg-day) was 12.46%, the “% Diff, Total Food Consumed” value (male, 0.3 mg/kg-day) was 9.40% and the A/G (male, 0.3 mg/kg-day) was 0.98±0.10 ratio. For the same molecule, the ABNEUT (male, 0.3 mg/kg-day) was 3.679±1.341 K/µL, the ABRETi (male, 0.3 mg/kg-day) was 224.66±50.41 10^9/L and the ABSEOS (male, 0.3 mg/kg-day) was 0.108±0.037 K/µL. The ALB (male, 0.3 mg/kg-day) was 3.74 ± 0.23 g/dL, the ALPi (male, 0.3 mg/kg-day) was 174.2±32.7 U/L and the APTT (male, 0.3 mg/kg-day) was 15.99 s. It also gave a BUN (male, 0.3 mg/kg-day) of 18.3 ± 1.6 mg/dL, a CHOL (male, 0.3 mg/kg-day) of 78.7 ± 16.8 mg/dL and a GLOB (male, 0.3 mg/kg-day) of 3.85 ± 0.30 g/dL. For the same molecule, the GLUC (male, 0.3 mg/kg-day) was 112.1 ± 9.6 mg/dL, the HCT (male, 0.3 mg/kg-day) was 47.33±1.28% and the HGB (male, 0.3 mg/kg-day) was 14.69 ± 0.40 g/dL. The “Kidney Weight” value (male, 0.3 mg/kg-day) was 3.46 g, the “Kidney/Body Weight” value (male, 0.3 mg/kg-day) was 0.56% and the “Kidney/Brain Weight” value (male, 0.3 mg/kg-day) was 157%. For the same molecule, the “Liver Weight” value (male, 0.3 mg/kg-day) was 17.52 g, the “Liver/Body Weight” value (male, 0.3 mg/kg-day) was 2.82% and the “Liver/Brain Weight” value (male, 0.3 mg/kg-day) was 793%. The MPV (male, 0.3 mg/kg-day) was 7.63 ± 0.44 fL, the PT (male, 0.3 mg/kg-day) was 15.10 s and the RBC (male, 0.3 mg/kg-day) was 8.282±0.259 M/µL. The “Total BW change” value (male, 0.3 mg/kg-day) was 339.42 g, the “Total Food Consumed” value (male, 0.3 mg/kg-day) was 2427 g and the “% BW Gain” value (male, 1.0 mg/kg-day) was 108.93%. The “% Diff, % BW Gain” value (male, 1.0 mg/kg-day) was 7.88% and the “% Diff, Total BW change” value (male, 1.0 mg/kg-day) was 4.36%.
